One compound from ChEMBL document CHEMBL1149057, “Mucus synthesis and sulfhydryl groups in cytoprotection mediated by dehydroleucodine, a sesquiterpene lactone” (1994) can be followed below.

Structures are written as SMILES. Calls of active or inactive are those of the source. The rule behind the calls is not given here.

Assay [1] concerns Rattus norvegicus. Kind of assay: Gastroprotective effect against ethanol-induced gastric damage in fasted Wistar rat assessed as extent of mucosal damage at 40 mg/kg, po pretreated 30 mins before ethanol challenge in presence of indomethacin pretreated 60 mins before ethanol challenge. The assay is classed as functional, Stomach.
The test system of assay [2] is Rattus norvegicus. Kind of assay: Gastroprotective effect in fasted Wistar rat assessed as increase in rate of gastric mucus glycoprotein synthesis at 40 mg/kg, po after 1 hr by N-acetyl-D-[1-3H]glucosamine incorporation method relative to control. It is filed as functional, Gastric mucosa.
Assay [3] deals with Rattus norvegicus. Nature of the assay: Gastroprotective effect against ethanol-induced gastric damage in fasted Wistar rat assessed as extent of mucosal damage at 40 mg/kg, po pretreated 30 mins before ethanol challenge in presence of N-ethylmaleimide pretreated 60 mins before ethanol challenge.
The subject of assay [4] is Rattus norvegicus. Nature of the assay: Gastroprotective effect against ethanol-induced gastric damage in fasted Wistar rat assessed as extent of mucosal damage at 40 mg/kg, po pretreated 30 mins before ethanol challenge in presence of N-ethylmaleimide and indomethacin pretreated 60 mins before ethanol challenge.
Assay [5] is filed under the species Rattus norvegicus. Kind of assay: Gastroprotective effect in pylorus-ligated Wistar rat assessed as inhibition of acid secretion. The assay is classed as functional, organism-based.
In assay [6] the test system is Rattus norvegicus. Kind of assay: Gastroprotective effect against ethanol-induced gastric damage in fasted Wistar rat assessed as extent of mucosal damage at 40 mg/kg, po pretreated 30 mins before ethanol challenge measured after 60 mins.

As to `C=C1C(=O)O[C@@H]2[C@H]3C(C)=CC(=O)C3=C(C)CC[C@@H]12` [DEHYDROLEUCODIN], the UI with Rattus norvegicus [1] is on record as 1.2; in the assay with Rattus norvegicus [3], 2.4; in the assay with Rattus norvegicus [4], 3.3; with Rattus norvegicus [6], 0.3. Further, in the assay on Rattus norvegicus [2], the “fold change (FC)” value amounted to 7. In the assay filed under Rattus norvegicus [5], the outcome was inactive.
